Entries after “also recorded” stand apart in the source; their conditions may differ.
Columns and labels:
[1] = tested on: isolated HMTK1 PTB domain; experiment: Pulldown of isolated HMTK1 PTB domain with immobilized pYEEI peptide; type: binding, Monosiga brevicollis; conditions: 8 µg PTB domain, 50 µl immobilized peptide, 1 hour at 4°C; anti-GST Western; Fig. 3B
Protocol: HMTK1 was expressed in Spodoptera frugiperda (Sf9) insect cells using the Bac-to-Bac system (Invitrogen). Sf9 cells (800 ml) were infected with HMTK1 baculovirus and harvested after three days. Cells were lysed in a French pressure cell, and His-tagged HMTK1 was purified using nickel-nitrilotriacetic acid resin (Qiagen), as described previously. Peak fractions were pooled and concentrated in an Amicon Ultrafiltration device (molecular weight cutoff: 30,000 daltons). The purified protein was stored in 40% glycerol at −20°C. The isolated PTB domain of HMTK1 was produced as a fusion with glutathione S-transferase (GST). E. coli cells (1 liter) expressing the GST fusion protein were lysed in a French pressure cell, and the GST-PTB protein was purified by chromatography on a glutathione-agarose column (Molecular Probes).
The PTB ligand-containing peptide, Phe-containing PTB control, and pYEEI peptide (EPQpYEEIG) were linked to Affi-Gel 15 resin (Bio-Rad) following the manufacturer's protocols. […]
(§1) Figure 3 Binding reactions with pYEEI-containing peptide. […] Bound proteins were eluted with SDS-PAGE sample buffer and analyzed by gel electrophoresis with Coomassie blue staining. […] After washing, bound proteins were eluted with SDS-PAGE sample buffer and analyzed by Western blotting with anti-GST antibody. […] After washing, bound proteins were analyzed by anti-FLAG Western blotting. […]

[2] = tested on: FLAG-tagged wild-type HMTK1; experiment: Pulldown of FLAG-tagged wild-type HMTK1 from SYF cell lysates with immobilized peptides; type: binding, Monosiga brevicollis; conditions: immobilized peptide; anti-FLAG Western; Fig. 3C
Protocol: (§2) For expression in insect cells, HMTK1 DNA (encoding residues 341–761) was cloned into the EcoRI site of pFastbac-Hta (Invitrogen). FLAG-tagged HMTK1 was expressed in mammalian cells by subcloning into the BglII and BamHI sites of p3XFLAG-CMV (Sigma). The ΔPTB version of this construct was prepared by PCR amplification and subsequent recloning into the BamHI and EcoRI sites of p3XFLAG-CMV. Site-directed mutagenesis of FLAG-HMTK1 was carried out using the QuikChange kit (Stratagene). To express the isolated third PTB domain (residues 341–474) in bacterial cells, this PCR fragment was cloned into the EcoRI site of plasmid pGEX-4T-1 (GE Healthcare). All constructs were confirmed by DNA sequencing.
(§3) The PTB ligand-containing peptide, Phe-containing PTB control, and pYEEI peptide (EPQpYEEIG) were linked to Affi-Gel 15 resin (Bio-Rad) following the manufacturer's protocols. Purified HMTK1 or the isolated PTB domain were incubated for 1 hour at 4°C with the immobilized peptides. […]
as §1

[3] = tested on: c-Src; experiment: Binding of purified Src to immobilized pYEEI peptide; conditions: positive control; 20 µg protein, 30 µl immobilized peptide, 1 hour at 4°C; Coomassie; Fig. 3A
Protocol: (§4) The PTB ligand-containing peptide, Phe-containing PTB control, and pYEEI peptide (EPQpYEEIG) were linked to Affi-Gel 15 resin (Bio-Rad) following the manufacturer's protocols. Purified HMTK1 or the isolated PTB domain were incubated for 1 hour at 4°C with the immobilized peptides. After binding, the beads were washed 4 times with 1 ml of binding buffer (50 mM Tris-HCl pH 7.5, 5 mM EDTA, 100 mM NaCl, 0.1% Triton X-100, 1 mM DTT, 0.5 mM Na3VO4). Bound proteins were eluted with SDS-PAGE loading buffer, separated by 10% SDS-PAGE, and visualized either by Coomassie blue staining or by Western blotting.
(§5) Figure 3 Binding reactions with pYEEI-containing peptide. (A). Purified HMTK1 or c-Src (20 µg) were mixed with 30 µl of immobilized pYEEI peptide (pY) or control resin (C) in total volumes of 175 µl for 1 hour at 4°C. After binding, the resins were washed 4 times with 200 µl of binding buffer. Bound proteins were eluted with SDS-PAGE sample buffer and analyzed by gel electrophoresis with Coomassie blue staining. (B). The isolated HMTK1 PTB domain (8 µg) was incubated with 50 µl of immobilized pYEEI peptide (pY) or control resin (C) in total volumes of 400 µl for 1 hour at 4°C. After washing, bound proteins were eluted with SDS-PAGE sample buffer and analyzed by Western blotting with anti-GST antibody. (C). […] After washing, bound proteins were analyzed by anti-FLAG Western blotting. […]

[4] = tested on: HMTK1; experiment: Binding of purified HMTK1 to immobilized pYEEI peptide; set-up: species or system Monosiga brevicollis; conditions: 20 µg protein, 30 µl immobilized peptide, 1 hour at 4°C; Coomassie; Fig. 3A
Protocol: as §4, §5

[5] = tested on: FLAG-tagged ΔPTB HMTK1; experiment: Pulldown of FLAG-tagged ΔPTB HMTK1 from SYF cell lysates with immobilized pYEEI; type: binding, Monosiga brevicollis; conditions: immobilized peptide; anti-FLAG Western; Fig. 3C
Protocol: as §2, §3, §1

[6] = tested on: HMTK1; experiment: Binding of purified HMTK1 to immobilized PTB ligand peptides; set-up: species or system Monosiga brevicollis; conditions: 6.6 µg HMTK1; peptide on Affi-Gel resin; 1 hour at 4°C; anti-His6 Western; Fig. 5A
Protocol: as §4
Figure 5 Substrate targeting by PTB ligand. (A) Purified HMTK1 (6.6 µg) was incubated with PTB ligand-containing substrate ([…]pYATLG), PTB control substrate ([…]), pYEEI peptide, or control resin in final volumes of 60 µl. After washing, bound proteins were eluted with SDS-PAGE sample buffer and analyzed by Western blotting with anti-His6-tag antibody. (B) The kinase activity of HMTK1 (300 nM) toward the PTB ligand-containing substrate or PTB control substrate (shown schematically) was determined using the phosphocellulose paper assay. The reaction contained 20 mM Tris-HCl (pH 7.4), 10 mM MgCl2, 0.2 mM ATP, 30 µM peptide, and [γ-^32P]-ATP. […] Incorporation of ^32P into the peptides was determined by scintillation counting.

[7] = tested on: Hck; conditions: Src family kinase Hck with the same peptide; ref [24]; cited from earlier work
Description: We selected a pair of peptides for further study. […] We synthesized an individual peptide in which the sequence NFTNPVpYATG was connected to a tyrosine kinase substrate sequence.

[8] = tested on: HMTK1; experiment: Substrate targeting: phosphorylation of PTB ligand-containing substrate and control by HMTK1; type: biochemical, Monosiga brevicollis; conditions: 30 µM peptide, 300 nM HMTK1, 20 mM Tris-HCl pH 7.4, 10 mM MgCl2, 0.2 mM ATP, Fig. 5B
Protocol: Kinase assays were performed by two methods. Initial activity measurements were performed by the phosphocellulose paper binding assay. Reaction mixtures contained 20 mM Tris-HCl (pH 7.4), 10 mM MgCl2, 0.2 mM ATP, [γ-^32P]-ATP (30–50 cpm/pmol), and varying amounts of HMTK1 and peptide substrates. All peptide substrates were purified by high pressure liquid chromatography and characterized by mass spectrometry prior to use. The following substrates were used: c-Src peptide, […]; MbSTAT peptide, […]; RTKB2 peptide 1, […]; RTKB2 peptide 2, […]; SH2 binding substrates (varying linker lengths), […]pYEEIG, […]pYEEIG, and […]pYEEIG; SH2 control substrate, […]. […] Kinetic constants were determined by nonlinear fitting to the [substrate] vs. velocity curves using GraphPad Prism 4.
Figure 5 Substrate targeting by PTB ligand. […] After washing, bound proteins were eluted with SDS-PAGE sample buffer and analyzed by Western blotting with anti-His6-tag antibody. (B) The kinase activity of HMTK1 (300 nM) toward the PTB ligand-containing substrate or PTB control substrate (shown schematically) was determined using the phosphocellulose paper assay. […] Incorporation of ^32P into the peptides was determined by scintillation counting.

[9] = tested on: HMTK1; experiment: Steady-state kinetics, continuous spectrophotometric assay; type: biochemical, Monosiga brevicollis; conditions: HMTK1 0.3–0.5 µM, peptide 0–700 µM, 100 mM Tris pH 7.4, 10 mM MgCl2, 2 mM ATP, 30°C
Protocol: Kinase assays were performed by two methods. Initial activity measurements were performed by the phosphocellulose paper binding assay. Reaction mixtures contained 20 mM Tris-HCl (pH 7.4), 10 mM MgCl2, 0.2 mM ATP, [γ-^32P]-ATP (30–50 cpm/pmol), and varying amounts of HMTK1 and peptide substrates. All peptide substrates were purified by high pressure liquid chromatography and characterized by mass spectrometry prior to use. The following substrates were used: c-Src peptide, […]; MbSTAT peptide, […]; RTKB2 peptide 1, […]; RTKB2 peptide 2, […]; SH2 binding substrates (varying linker lengths), […]pYEEIG, […]pYEEIG, and […]pYEEIG; SH2 control substrate, […]. Initial rate kinetic measurements on the PTB ligand-containing substrate ([…]pYATLG) and on the Phe-containing PTB control ([…]) were carried out using a continuous spectrophotometric assay. Reactions were performed at 30°C in a final volume of 50 µl. The reactions contained 100 mM Tris pH 7.4, 10 mM MgCl2, 2 mM ATP, 1.5 mM phosphoenolpyruvate, 90 units/ml of pyruvate kinase, 109 units/ml of lactate dehydrogenase, and 1.2 mg/ml of NADH. For determination of Km values, the enzyme concentrations were 0.3–0.5 µM and the peptide concentrations ranged from 0–700 µM. Kinetic constants were determined by nonlinear fitting to the [substrate] vs. velocity curves using GraphPad Prism 4.

[10] = tested on: HMTK1 PTB domain; experiment: Peptide array (PepSpots) probed with biotinylated HMTK1 PTB domain; type: binding, Monosiga brevicollis; conditions: 10 µg/ml PTB, 5% BSA, 20 mM Hepes pH 7.3, 30 min at room temperature; streptavidin-HRP chemiluminescence; Fig. 4A
Description: The PTB domain of HMTK1 was cloned as an EcoR1 fragment into a modified pGEX (GE Healthcare Life Sciences) bicistronic vector pGEX-4T-BiotinN to express the gene of interest and the biotin ligase (BirA) in the same cell ([19]; Chan et al., in press). […] The resulting pGEX-BiotinN-PTB construct was transformed into E. coli BL21(DE3) cells for expression. GST-biotin-PTB protein was purified using glutathione-agarose and desalted using a PD-10 (GE Healthcare) gel filtration column.
N-terminally acetylated 11-residue peptides were synthesized using standard chemistry in situ (PepSpots) on cellulose based matrix (Jerini Biotools). To ensure protein accessibility, each peptide contained a 4-residue spacer consisting of a glycine and 3 β-alanines. All peptides were immobilized via their C-termini. […] Prior to usage, peptide array membranes were washed in binding buffer (20 mM Hepes pH 7.3, 137 mM NaCl, 5 mM KCl, 0.05% Tween-20) and blocked with 5% filtered bovine serum albumin in the same buffer. […] After washing in binding buffer (3×10 min), bound PTB was detected using enhanced chemiluminescence and standard X-ray film.
Figure 4 Peptide array experiment. […] Bound PTB domain was detected using streptavidin-HRP and enhanced chemiluminescence. […]

[11] = tested on: SYF cells; experiment: Anti-phosphotyrosine Western blotting of SYF cell lysates; type: cell-based, mammalian; conditions: 0.1 or 1.0 mM sodium orthovanadate, 20 minutes, 37°C; Fig. S4B
Protocol: SYF cells were cultured in Dulbecco's modified Eagle's medium (Mediatech, Inc.) supplemented with 10% fetal bovine serum (Sigma) and 1000 UI/ml penicillin, 1000 UI/ml streptomycin and 25 ng/ml amphotericin B (Mediatech, Inc.). SYF cells (2.25×10^6) were plated in 15-cm diameter dishes and transfected after 24 hours using 5–15 µg of DNA and 2 µl TransIT per µg DNA. After 48 hours, the cells were harvested, washed twice with PBS and lysed using radioimmune precipitation assay (RIPA) buffer (50 mM Tris-HCl pH 7.4, 150 mM NaCl, 5 mM EDTA, 1% sodium deoxycholate, 1% Nonidet P-40) supplemented with the protease inhibitors leupeptin (10 µg/ml), aprotinin (10 µg/ml), PMSF (200 µM) and the phosphatase inhibitors Na3VO4 (0.2 mM) and NaF (10 mM). Lysates (50 µg) were separated by 10% SDS-PAGE, transferred to PVDF membranes and probed with the appropriate antibodies. For immunoprecipitation, cell lysates (100 µg) were incubated overnight at 4°C with 40 µl of EZview red anti-Flag M2 affinity gel pre-equilibrated with RIPA buffer in a total volume of 1 ml. The immunocomplexes were washed 4 times, eluted from the beads by adding Laemmli buffer, separated by SDS-PAGE, transferred to PVDF membranes and probed with the appropriate antibodies.
Whole cell lysates were analyzed by SDS-PAGE and Western blotting with anti-pTyr, anti-FLAG, or anti-tubulin antibodies, as indicated. […]

For “EPQpYEEIG [Src SH2 ligand peptide linked to Affi-Gel 15 resin]”, the “binding to isolated HMTK1 PTB domain” value [1] was “pYEEI-binding activity was localized to the PTB domain; also recorded: bound”, the “binding to wild-type HMTK1 (SYF lysate)” value [2] was “bound” and the “binding to purified Src” value [3] was “bound”. The “binding to purified HMTK1” value [4] was “bound” and the “binding to ΔPTB HMTK1 (SYF lysate)” value [5] was “did not”.

In the case of “KKAEEEIYGEFEANFTNPVpYATLG [pTyr peptide]”, the “binding to purified HMTK1” value [6] is listed as “bound”, the “Vmax (Hck)” value [7] is listed as 3.0 µmol/min/mg enzyme and the “phosphorylation by HMTK1 compared to Phe control” value ([8]; listed as pTyr-containing peptide) is listed as “preferentially phosphorylated”. The “phosphorylation by HMTK1 compared to Phe control” value ([8]; listed as synthetic peptide containing this sequence (with pTyr)) was “phosphorylated more efficiently”, the Vmax [9] was 4.9 µmol/min/mg enzyme and the Km ([9]; nonlinear fitting) was 33 µM.

For TNFTNPVYATLG, the “binding of biotinylated PTB domain to array peptides, phosphorylated vs unphosphorylated” value [10] was “bound much more strongly in the phosphorylated state”.

In the case of sodium orthovanadate, the “overall phosphorylation in SYF cells” value [11] is reported as “enhanced overall phosphorylation”.
